Experimental data from patent US20250326715A1, “NOVEL MAIN PROTEASE INHIBITORS, AND COMPOSITIONS AND METHODS THEREOF” (University of Massachusetts, priority 2023, published 2025).
Like-named read-outs stand apart in the source and are kept apart here.

What was measured:
SARS-CoV-2 M^Pro [1] = biological target: T1, SARS-CoV-2 M^Pro (Severe acute respiratory syndrome coronavirus 2, UniProt P0DTD1); assay: Determination of IC50 values for SARS-CoV-2 M^Pro (fluorogenic peptide substrate, end-point); type: biochemical
SARS-CoV-2 M^Pro [2] = biological target: T1, SARS-CoV-2 M^Pro; assay: Determination of KI values for SARS-CoV-2 M^Pro (initial velocity, competitive inhibition); type: biochemical
SARS-CoV-2 PL^Pro = SARS-CoV-2 PL^Pro (Severe acute respiratory syndrome coronavirus 2, UniProt P0DTD1); assay: Determination of IC50 values for SARS-CoV-2 PL^Pro (Z-RLRGG-AMC substrate); type: biochemical
Cathepsin L = biological target: T2, Cathepsin L (Homo sapiens, UniProt P07711); assay: Cathepsin L inhibition assay kit (Abcam), IC50 and kinact/KI; type: biochemical; details: for IC50: 20 min pretreatment; for kinact/KI: read-out: Cathepsin L kinact/KI
T2 construct: purchased Abcam ab197012
T2 sequence (P07711 114-333): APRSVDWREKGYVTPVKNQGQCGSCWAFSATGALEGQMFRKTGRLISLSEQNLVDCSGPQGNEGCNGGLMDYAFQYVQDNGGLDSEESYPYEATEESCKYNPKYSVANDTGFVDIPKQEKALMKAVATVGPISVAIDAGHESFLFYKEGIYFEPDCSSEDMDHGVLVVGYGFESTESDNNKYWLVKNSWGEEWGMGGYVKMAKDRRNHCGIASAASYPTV
Protocol: (§1) Determination of IC50 and kinact/KI values for Cathepsins L and B
IC50 and kinact/KI values of the inhibitors were determined using commercially available inhibition assay kits (Abcam) by following the manufacturer's protocol. […] The observed rates (kobs) were determined by fitting to a single-phase association equation. The resulting kobs values were plotted against the concentrations of inhibitor and the data were fit to equation 2 to derive the kinact/KI values,
using GraphPad Prism, where kinact is the maximal rate of inactivation, KI is the concentration of inhibitor that affords half-maximal inactivation, and [I] is the concentration of inhibitor. When kobs with [I] varied linearly, kinact/KI was determined from the slope of the line. All the experiments were performed in triplicate. […] Crystallization of M^Pro in Complex with Inhibitors

Cathepsin B = biological target: T3, Cathepsin B (Homo sapiens, UniProt P07858); assay: Cathepsin B inhibition assay kit (Abcam), IC50; type: biochemical; details: 20 min pretreatment
T3 construct: purchased Abcam ab185438
Protocol: as §1
IC50 and kinact/KI values of the inhibitors were determined using commercially available inhibition assay kits (Abcam) by following the manufacturer's protocol. For IC50 values, enzymes were pretreated with test inhibitor (0-50 μM) for 20 min prior to adding the fluorogenic substrate, and end-point fluorescence was recorded after 30 min. For the kinact/KI values, enzymes were treated with inhibitor and substrate simultaneously and increase in fluorescence was monitored over 60 min. The observed rates (kobs) were determined by fitting to a single-phase association equation. The resulting kobs values were plotted against the concentrations of inhibitor and the data were fit to equation 2 to derive the kinact/KI values,
using GraphPad Prism, where kinact is the maximal rate of inactivation, KI is the concentration of inhibitor that affords half-maximal inactivation, and [I] is the concentration of inhibitor. When kobs with [I] varied linearly, kinact/KI was determined from the slope of the line. All the experiments were performed in triplicate. All fluorescence measurements were taken at absorption/emission wavelength of 400/505 nm using an EnVision 2105 plate reader. Crystallization of M^Pro in Complex with Inhibitors

SARS-CoV-2 = assay: microbe, parasite or virus in culture; type: cell-based; details: for EC90: read-out: EC90, inhibition of SARS-CoV-2 infection; for EC50: read-out: EC50, inhibition of SARS-CoV-2 infection; for IC50: hACE2 expressing A549 cells, read-out: IC50, block of SARS-CoV2 replication
OC-43 = type: cell-based; details: A549-hACE2 cells
M^Pro [3] = biological target: T4, M^Pro (Severe acute respiratory syndrome coronavirus 2, UniProt P0DTD1); type: binding
M^Pro [4] = biological target: T4, M^Pro; assay: Labelling of A549-hACE2 lysate spiked with recombinant M^Pro with SM144, competition by SM141 or SM142; type: binding, SARS-CoV-2; details: 250 nM M^Pro spiked, 2.5 μM SM144, 2.5-25 μM competitor
Protocol: A549-hACE2 cells were grown in the DMEM medium (supplemented with 10% heat-inactivated fetal bovine serum, 100 units/mL penicillin and 100 μg/mL streptomycin). Upon reaching ˜90% confluence, cells were collected using a cell scraper, harvested by centrifugation at 3,000 rpm for 5 min and were resuspended in 1×PBS supplemented with 1% NP-40. Then the cells were lysed using a probe sonicator and lysates were cleared by centrifugation at 21000 g for 15 min. Soluble proteins in the lysate were quantified by DC-assay (Bio-Rad).
A549-hACE2 lysate (2 mg/mL, 50 μL total) spiked with or without recombinant M^Pro (250 nM final) was treated with DTT (1 mM final) and various concentrations of SM144 (0-5 μM final). […] All these reactions were incubated at 25° C. for 30 min. Then TAMRA-N3 (100 μM), TCEP (1 mM), TBTA (0.3 mM) and freshly prepared copper (II) sulphate (4 mM) were added sequentially to the reaction mixture. The tubes were then gently tumbled at room temperature for 2 h. The precipitated proteins were collected by centrifugation at 5000 rpm for 6 min. The protein pellets were resuspended in 5×SDS-PAGE loading dye, heated at 95° C. for 10 min and separated by SDS-PAGE. Protein bands were visualized by recording in-gel fluorescence using a typhoon scanner (excitation/emission maxima ˜546/579 nm). All the experiments were performed in duplicate.

[5] = mock-infected mice
[6] = Pharmacokinetic parameters in mice (plasma, LC-MS/MS); details: for CI_Obs: IV
Protocol: Pharmacokinetics were evaluated in male C57Bl/6 mice, approximately 25 g. Test compounds were formulated at 0.3 mg/mL for intravenous dosing and 1 mg/mL for oral gavage. Formulation concentrations reflect free-base concentrations. Formulations were prepared by dissolving in DMSO (20× stock) and mixing 1:1 with tween-80. Prior to dosing, the formulation was diluted with sterile saline. The final formulation was 5% DMSO, 5% tween-80, 90% saline (v:v:v). Mice (n=3) were dosed at 10 μL per gram body weight. […] A total of 25 μL blood was collected at each time point. The hematocrit tubes were sealed with a wax plug and held on ice until plasma could be isolated via centrifugation in a microcentrifuge fit with a hematocrit rotor.
Drug levels were determined from 5 μL plasma. Plasma was treated with 75 μL 90/10 acetonitrile/water containing Carbamazepine as an internal standard (IS). Samples were loaded to a 96-well Millipore Multiscreen Solvinter 0.45 micron low binding PTFE hydrophilic filter plate and the filtrate was directly analyzed. All plasma samples were treated with 75 μL 90/10 acetonitrile/water with Carbamazepine as internal standard (IS) to extract the analyte and precipitate protein. The plates were agitated on ice for approximately five minutes prior to centrifugation into a collection plate. Separate standard curves were prepared in blank mouse plasma and brain homogenate and processed in parallel with the samples. The filtrate was directly analyzed by LC-MS/MS.

SARS-CoV-2 M^Pro [7] = biological target: T1, SARS-CoV-2 M^Pro; assay: Determination of kinact/KI values for SARS-CoV-2 M^Pro (time- and concentration-dependent inactivation); type: biochemical
Protocol: where νo is the initial velocity of uninhibited reaction and νi is the initial velocity in the presence of inhibitor. All measurements were done in triplicate. Determination of kinact/KI values for SARS-CoV-2 M^Pro
Time- and concentration-dependent inactivation assays were done by following a similar protocol as described for Ki determination. M^Pro (12.5 nM final) was treated with the peptide-substrate (30 μM final) and test inhibitor (0-80 μM for D-FF(R/Cit)-(CMK/CMKyne); 0-1.25 mM for SM136-145) at time=0 to initiate inactivation process. The total volume of the assay mixture was 50 μL. Time-dependent increase in fluorescence was monitored at 485 nm with excitation at 340 nm for a period of 20-25 min. The observed rates (kobs) for the peptide cleavage in both the presence and absence of inhibitor were determined by fitting to a single-phase association equation. The resulting kobs values were plotted against the concentrations of inhibitor and linear fits were used to derive the slope that afforded the kinact/KI values. All measurements were done in triplicate.

[8] = Severe acute respiratory syndrome coronavirus 2, A549-hACE2 cells
[9] = Severe acute respiratory syndrome coronavirus 2
[10] = 12.5 nM M^Pro, 20 min preincubation, 30 μM substrate, read-out: M^Pro IC50
[11] = competitive inhibition, initial velocity, read-out: M^Pro Ki
[12] = 30 nM PL^Pro, 20 min preincubation, read-out: PL^Pro IC50
[13] = male, C57Bl/6, mouse, plasma, iv, 3 mg/kg
[14] = male, C57Bl/6, mouse, plasma, po, 10 mg/kg

Q: Which IC50 (SARS-CoV-2 M^Pro [1]) does the source give for `CCOC(=O)C=CC(CC1CCNC1=O)NC(=O)C(Cc1ccccc1)NC(=O)C(N)Cc1ccccc1` (stereo not shown) [SM141] here?
A: The IC50 was 900 nM.

Q: What about the Ki (SARS-CoV-2 M^Pro [2]) of the same compound?
A: Its Ki is 9000 nM.

Q: What about the IC50 (SARS-CoV-2 PL^Pro) of the same compound?
A: Its IC50 is greater than 50000 nM.

Q: And the “inhibition of papain-like protease (PL^Pro), in words” value (SARS-CoV-2 PL^Pro)?
A: Its value is “completely inactive”.

Q: What about the IC50 (Cathepsin L) of the same compound?
A: Its IC50 is 60 nM.

Q: And the IC50 (Cathepsin B)?
A: The IC50 was greater than 50000 nM.

Q: And the “antiviral activity, in words” value (SARS-CoV-2; A549-hACE2 cells, 2 μM, 24 h)?
A: The value was “almost completely blocks viral infection”.

Q: And the EC90 (SARS-CoV-2; A549-hACE2 cells)?
A: Its EC90 is 22 nM.

Q: What about the EC50 (SARS-CoV-2; [8]) of the same compound?
A: Its EC50 is 8.2 nM.

Q: What about the EC90 (SARS-CoV-2; [8]) of the same compound?
A: Its EC90 is 22.1 nM.

Q: And the IC50 (SARS-CoV-2; [9])?
A: Its IC50 is 8.2 nM.

Q: What about the “inhibition of OC-43, in words” value (OC-43) of the same compound?
A: The value was “inhibit OC-43”.

Q: And the “inhibition of SM144 labeling of recombinant M^Pro” value (M^Pro [3]; 0-50 μM competitor, 5 μM SM144)?
A: Its value is “competitively inhibited”.

Q: And the “labeling of M^Pro in spiked A549-hACE2 lysate / its inhibition” value (M^Pro [4])?
A: The value was “dose dependently inhibited”.

Q: What about the “weight loss in uninfected mice” value [5] of the same compound?
A: Its value is “no significant weight loss in the uninfected mice”.

Q: And the “oral bioavailability / oral absorption, in words” value ([6]; mice)?
A: Its value is “minimal oral bioavailability”.

Q: What about the “plasma half-life (T1/2), in words” value ([6]; mice) of the same compound?
A: The value was “about an hour”.

Q: And the “tissue distribution, in words” value ([6]; mice)?
A: The value was “lower tissue distribution”.

Q: And the CI_Obs ([6]; mice)?
A: The CI_Obs was 71.5 mL/min/kg.

Q: Which results are given for `CCOC(=O)C=CC(CC1CCNC1=O)NC(=O)C(Cc1ccccc1)NC(=O)C(Cc1ccc(F)cc1)NC(=O)OC(C)(C)C` (stereo not shown) [SM142]?
A: IC50 (SARS-CoV-2 M^Pro [1]; [10]): 1800 nM; Ki (SARS-CoV-2 M^Pro [2]; [11]): 10000 nM; kinact/KI (SARS-CoV-2 M^Pro [7]; read-out: M^Pro kinact/KI): 183 M⁻¹ s⁻¹; inhibition of papain-like protease (PL^Pro), in words (SARS-CoV-2 PL^Pro): completely inactive; IC50 (SARS-CoV-2 PL^Pro; [12]): > 50000 nM; IC50 (Cathepsin L): 145 nM; kinact/KI (Cathepsin L): 1830 M⁻¹ s⁻¹; IC50 (Cathepsin B): 40000 ± 9000 nM; EC50 (SARS-CoV-2; [8]): 14.7 nM; IC50 (SARS-CoV-2; [9]): 14.7 nM; inhibition of OC-43, in words (OC-43): inhibit OC-43; labeling of M^Pro in spiked A549-hACE2 lysate / its inhibition (M^Pro [4]): dose dependently inhibited; weight loss in uninfected mice [5]: no significant weight loss in the uninfected mice; half-life ([6]; male, C57Bl/6, mouse, in vivo, po, 10 mg/kg): 2.1 h; AUC(0-inf) [6, 13]: 308 ng·h/mL; AUC(0-t) [6, 13]: 0.4 µM·h; Cmax [6, 13]: 400 nM; MRT inf [6, 13]: 1.9 h; Tmax [6, 13]: 4.8 min; Vd [6, 13]: 13.2 L/kg; half-life [6, 13]: 2.1 h; AUC(0-inf) [6, 14]: 347 ng·h/mL; AUC(0-t) [6, 14]: 0.5 µM·h; Cmax [6, 14]: 600 nM; Tmax [6, 14]: 4.8 min; bioavailability [6, 14]: 37.5%; oral bioavailability / oral absorption, in words ([6]; mice): significant oral absorption; tissue distribution, in words ([6]; mice): much higher tissue distribution than SM141; CI_Obs ([6]; mice): 169 mL/min/kg

Q: Which results are given for `C#CCOCCC(=O)NC(Cc1ccc(F)cc1)C(=O)NC(Cc1ccccc1)C(=O)NC(C=CC(=O)OCC)CC1CCNC1=O` (stereo not shown) [SM144]?
A: IC50 (SARS-CoV-2 M^Pro [1]; [10]): 700 nM; Ki (SARS-CoV-2 M^Pro [2]; [11]): 4500 nM; kinact/KI (SARS-CoV-2 M^Pro [7]; read-out: second-order rate constant for enzyme inactivation (kinact/KI), M^Pro): 567 M⁻¹ s⁻¹; IC50 (SARS-CoV-2 PL^Pro; [12]): > 50000 nM; IC50 (Cathepsin L): 220 nM; kinact/KI (Cathepsin L): 1000 M⁻¹ s⁻¹; IC50 (Cathepsin B): > 50000 nM; antiviral activity compared with SM141 and SM142 (SARS-CoV-2; A549-hACE2 cells): significantly lower antiviral activity than SM141 and SM142; limit of detection of M^Pro by the probe (M^Pro [3]; 5 μM SM144, TAMRA-azide, in-gel fluorescence): 5 pmol; labeling of M^Pro in spiked A549-hACE2 lysate / its inhibition (M^Pro [4]): selectively labels M^Pro in a dose-dependent manner
